pIC50: −log10 of the molar value. Active and inactive are the calls of the source. No cut-off for these calls is given here.
What was measured:
[1] = target: T1, Transcriptional enhancer factor TEF-1 (Homo sapiens, UniProt P28347); assay: Displacement of FAM- labeled YAP1 peptide (60 to 99 residues) from human TEAD1 (209 to 426 residues) expressed in Escherichia coli BL21 (DE3) cells incubated for 24 hrs by fluorescence polarization-based competitive binding assay; conditions: read-out: IC50
[2] = target: T2, Transcriptional enhancer factor TEF-3 (Homo sapiens, UniProt Q15561); assay: Inhibition of TEAD4 (unknown origin) transfected in human HEK293 cells co-transfected with renilla plasmid assessed as maximum inhibition of transcriptional activity at 0.01 to 100 uM incubated for 24 hrs by dual Glo-luciferase reporter assay relative to control; type: cell-based; conditions: dose 0.01-100 µM
[3] = target: T2, Transcriptional enhancer factor TEF-3; assay: Displacement of FAM- labeled YAP1 peptide (60 to 99 residues) from human TEAD4 (217 to 434 residues) expressed in Escherichia coli BL21 (DE3) cells incubated for 24 hrs by fluorescence polarization-based competitive binding assay; conditions: read-out: IC50
[4] = test system: Transcriptional enhancer factor TEF-3 (Homo sapiens), Q15561 [C367S]; assay: Displacement of FAM- labeled YAP1 peptide (60 to 99 residues) from human TEAD4 (217 to 434 residues) C367S mutant expressed in Escherichia coli BL21 (DE3) cells at 0.2 to 100 uM incubated for 24 hrs by fluorescence polarization-based competitive binding assay; conditions: dose 0.2-100 µM
[5] = Inhibition of TEAD in human MDA-MB-468 cells assessed as inhibition of CTGF transcriptional level incubated for 24 hrs by qRT-PCR assay; type: cell-based; conditions: for pIC50: Homo sapiens, MDA-MB-468, 24 h, read-out: IC50
[6] = target: T3, Transcriptional enhancer factor TEF-4 (Homo sapiens, UniProt Q15562); assay: Displacement of FAM- labeled YAP1 peptide (60 to 99 residues) from human TEAD2 (217 to 447 residues) expressed in Escherichia coli BL21 (DE3) cells assessed as maximum inhibition at 0.2 to 100 uM incubated for 24 hrs by fluorescence polarization-based competitive binding assay relative to control; conditions: dose 0.2-100 µM
[7] = target: T2, Transcriptional enhancer factor TEF-3; assay: Inhibition of TEAD4 (unknown origin) transfected in human HEK293 cells co-transfected with renilla plasmid assessed as inhibition of transcriptional activity incubated for 24 hrs by dual Glo-luciferase reporter assay; type: cell-based; conditions: for pIC50: read-out: IC50
[8] = target: T4, Transcriptional enhancer factor TEF-5 (Homo sapiens, UniProt Q99594); assay: Displacement of FAM- labeled YAP1 peptide (60 to 99 residues) from human TEAD3 (210 to 427 residues) expressed in Escherichia coli BL21 (DE3) cells incubated for 24 hrs by fluorescence polarization-based competitive binding assay
MDA-MB-468 [9] = assay: Inhibition of TEAD in human MDA-MB-468 cells assessed as maximal inhibition of CTGF transcriptional level at 0.01 to 100 uM incubated for 24 hrs by qRT-PCR assay relative to control; type: cell-based; conditions: dose 0.01-100 µM
[10] = target: T3, Transcriptional enhancer factor TEF-4; assay: Displacement of FAM- labeled YAP1 peptide (60 to 99 residues) from human TEAD2 (217 to 447 residues) expressed in Escherichia coli BL21 (DE3) cells incubated for 24 hrs by fluorescence polarization-based competitive binding assay
[11] = target: T3, Transcriptional enhancer factor TEF-4; assay: Inhibition of TEAD2 (unknown origin) transfected in human HEK293 cells co-transfected with renilla plasmid assessed as maximum inhibition of transcriptional activity at 10 uM incubated for 24 hrs by dual Glo-luciferase reporter assay relative to control; type: cell-based
[12] = target: T1, Transcriptional enhancer factor TEF-1; assay: Inhibition of TEAD1 (unknown origin) transfected in human HEK293 cells co-transfected with renilla plasmid assessed as maximum inhibition of transcriptional activity at 10 uM incubated for 24 hrs by dual Glo-luciferase reporter assay relative to control; type: cell-based
[13] = target: T4, Transcriptional enhancer factor TEF-5; assay: Inhibition of TEAD3 (unknown origin) transfected in human HEK293 cells co-transfected with renilla plasmid assessed as inhibition of transcriptional activity incubated for 24 hrs by dual Glo-luciferase reporter assay; type: cell-based
[14] = Antiproliferative activity against human SaOS-LM7 cells assessed as reduction in cell viability incubated for 3 days by MTS assay; type: functional, cell-based; conditions: SaOS-LM7, 72 h
[15] = target: T5, YAP1-TEAD4 (Homo sapiens) (UniProt P46937+Q15561); assay: Inhibition of NanoLuc-tagged TEAD4 (unknown origin)-Halo-Tagged YAP1 (unknown origin) protein-protein interaction transfected in HEK293 cells using furimazine as substrate at 0.9 to 30 uM incubated for 24 hrs by NanoBRET binding assay; type: cell-based; conditions: dose 0.9-30 µM
[16] = target: T3, Transcriptional enhancer factor TEF-4; assay: Inhibition of TEAD2 (unknown origin) transfected in human HEK293 cells co-transfected with renilla plasmid assessed as maximum inhibition of transcriptional activity at 0.1 to 10 uM incubated for 24 hrs by dual Glo-luciferase reporter assay relative to control; type: cell-based; conditions: dose 0.1-10 µM
Huh-7 [17] = assay: Antiproliferative activity against human Huh-7 cells assessed as reduction in cell viability incubated for 3 days by MTS assay; type: functional, cell-based; conditions: Huh-7, 72 h
[18] = target: T5, YAP1-TEAD4 (Homo sapiens); assay: Inhibition of myc-tagged TEAD4 (unknown origin)-Flag-Tagged YAP1 (unknown origin) protein-protein interaction transfected in HEK293 cells using furimazine as substrate at 1.1 to 11 uM incubated for 24 hrs by pull-down coimmunoprecipitation assay; type: cell-based; conditions: dose 1.1-11 µM
[19] = target: T6, Transcriptional coactivator YAP1/Transcriptional enhancer factor TEF-1 (Homo sapiens) (UniProt P46937+P28347); assay: Inhibition of NanoLuc-tagged TEAD1 (unknown origin)-Halo-Tagged YAP1 (unknown origin) protein-protein interaction transfected in HEK293 cells using furimazine as substrate at 1.1 to 30 uM incubated for 24 hrs by NanoBRET binding assay; type: cell-based; conditions: dose 1.1-30 µM
[20] = Antiproliferative activity against human ST88-14 cells assessed as reduction in cell viability incubated for 3 days by MTS assay; type: functional, cell-based; conditions: ST88-14, 72 h
SAOS-2 [21] = assay: Antiproliferative activity against human SAOS-2 cells assessed as reduction in cell viability incubated for 3 days by MTS assay; type: functional, cell-based; conditions: SAOS-2, 72 h
[22] = target: T3, Transcriptional enhancer factor TEF-4; assay: Inhibition of TEAD2 (unknown origin) transfected in human HEK293 cells co-transfected with renilla plasmid assessed as inhibition of transcriptional activity incubated for 24 hrs by dual Glo-luciferase reporter assay; type: cell-based
[23] = Antiproliferative activity against human 90-8 cells assessed as reduction in cell viability incubated for 3 days by MTS assay; type: functional, cell-based; conditions: 90-8, 72 h
[24] = target: T5, YAP1-TEAD4 (Homo sapiens); assay: Inhibition of NanoLuc-tagged TEAD4 (unknown origin)-Halo-Tagged YAP1 (unknown origin) protein-protein interaction transfected in HEK293 cells using furimazine as substrate at 1.1 to 30 uM incubated for 24 hrs by NanoBRET binding assay; type: cell-based; conditions: dose 1.1-30 µM
[25] = target: T1, Transcriptional enhancer factor TEF-1; assay: Inhibition of TEAD1 (unknown origin) transfected in human HEK293 cells co-transfected with renilla plasmid assessed as inhibition of transcriptional activity incubated for 24 hrs by dual Glo-luciferase reporter assay; type: cell-based
[26] = Antiproliferative activity against human 90-8 cells assessed as maximum inhibition of cell viability incubated for 3 days by MTS assay relative to control; type: functional; conditions: time 3 day
SAOS-2 [27] = assay: Antiproliferative activity against human SAOS-2 cells assessed as maximum inhibition of cell viability incubated for 3 days by MTS assay relative to control; type: functional; conditions: time 3 day
[28] = Antiproliferative activity against human SaOS-LM7 cells assessed as maximum inhibition of cell viability incubated for 3 days by MTS assay relative to control; type: functional; conditions: time 3 day
[29] = target: T6, Transcriptional coactivator YAP1/Transcriptional enhancer factor TEF-1 (Homo sapiens); assay: Inhibition of NanoLuc-tagged TEAD1 (unknown origin)-Halo-Tagged YAP1 (unknown origin) protein-protein interaction transfected in HEK293 cells using furimazine as substrate at 10 uM incubated for 2 to 24 hrs by NanoBRET binding assay; type: cell-based; conditions: time 2-24 hrs, TDE = time-dependent effect
Huh-7 [30] = assay: Antiproliferative activity against human Huh-7 cells assessed as maximum inhibition of cell viability incubated for 3 days by MTS assay relative to control; type: functional; conditions: time 3 day
[31] = Antiproliferative activity against human ST88-14 cells assessed as maximum inhibition of cell viability incubated for 3 days by MTS assay relative to control; type: functional; conditions: time 3 day
[32] = target: T2, Transcriptional enhancer factor TEF-3; assay: Displacement of FAM- labeled YAP1 peptide (60 to 99 residues) from human TEAD4 (217 to 434 residues) expressed in Escherichia coli BL21 (DE3) cells at 100 uM incubated for 24 hrs followed by dialysis buffer for 24 hrs
[33] = target: T1, Transcriptional enhancer factor TEF-1; assay: Inhibition of TEAD1 (unknown origin) transfected in human HEK293 cells co-transfected with renilla plasmid assessed as maximum inhibition of transcriptional activity at 0.1 to 10 uM incubated for 24 hrs by dual Glo-luciferase reporter assay relative to control; type: cell-based; conditions: dose 0.1-10 µM
MDA-MB-468 [34] = assay: Antiproliferative activity against human MDA-MB-468 cells assessed as maximum inhibition of cell viability incubated for 3 days by MTS assay relative to control; type: functional, cell-based; conditions: time 3.0 day
MDA-MB-468 [35] = assay: Antiproliferative activity against human MDA-MB-468 cells assessed as reduction in cell viability incubated for 3 days by MTS assay; type: functional, cell-based
[36] = target: T5, YAP1-TEAD4 (Homo sapiens); assay: Inhibition of NanoLuc-tagged TEAD4 (unknown origin)-Halo-Tagged YAP1 (unknown origin) protein-protein interaction transfected in HEK293 cells using furimazine as substrate at 10 uM incubated for 2 to 24 hrs by NanoBRET binding assay; type: cell-based; conditions: time 2-24 hrs, TDE = time-dependent effect
[37] = target: T2, Transcriptional enhancer factor TEF-3; assay: Inhibition of TEAD4 (unknown origin) transfected in human HEK293 cells co-transfected with renilla plasmid assessed as maximum inhibition of transcriptional activity at 0.1 to 10 uM incubated for 24 hrs by dual Glo-luciferase reporter assay relative to control; type: cell-based; conditions: dose 0.1-10 µM

T4 sequence (Q99594 whole entry, the tested form may be a part): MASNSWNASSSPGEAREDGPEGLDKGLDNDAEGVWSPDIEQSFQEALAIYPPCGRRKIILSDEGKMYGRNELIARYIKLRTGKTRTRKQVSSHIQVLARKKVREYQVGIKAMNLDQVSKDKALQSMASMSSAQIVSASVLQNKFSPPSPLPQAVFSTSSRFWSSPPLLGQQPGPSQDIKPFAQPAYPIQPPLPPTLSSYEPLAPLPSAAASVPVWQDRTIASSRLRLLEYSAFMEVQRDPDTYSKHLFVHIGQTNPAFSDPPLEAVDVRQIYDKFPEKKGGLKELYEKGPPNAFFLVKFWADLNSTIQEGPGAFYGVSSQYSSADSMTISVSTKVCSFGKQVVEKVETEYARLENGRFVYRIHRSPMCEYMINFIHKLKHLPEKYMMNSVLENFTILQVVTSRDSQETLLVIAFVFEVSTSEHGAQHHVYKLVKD
T2 sequence (Q15561 whole entry, the tested form may be a part): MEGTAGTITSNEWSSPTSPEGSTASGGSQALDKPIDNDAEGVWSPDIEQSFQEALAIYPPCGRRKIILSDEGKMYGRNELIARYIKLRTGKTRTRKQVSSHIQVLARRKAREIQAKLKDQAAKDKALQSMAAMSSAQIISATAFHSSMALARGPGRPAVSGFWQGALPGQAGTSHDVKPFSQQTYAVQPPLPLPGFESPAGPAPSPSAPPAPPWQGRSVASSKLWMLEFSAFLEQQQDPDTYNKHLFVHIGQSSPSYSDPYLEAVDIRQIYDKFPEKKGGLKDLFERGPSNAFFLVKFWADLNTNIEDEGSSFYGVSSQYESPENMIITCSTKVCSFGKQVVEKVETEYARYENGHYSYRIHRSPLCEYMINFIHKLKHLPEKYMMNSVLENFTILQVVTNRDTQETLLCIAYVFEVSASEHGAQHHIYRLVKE
T3 sequence (Q15562 whole entry, the tested form may be a part): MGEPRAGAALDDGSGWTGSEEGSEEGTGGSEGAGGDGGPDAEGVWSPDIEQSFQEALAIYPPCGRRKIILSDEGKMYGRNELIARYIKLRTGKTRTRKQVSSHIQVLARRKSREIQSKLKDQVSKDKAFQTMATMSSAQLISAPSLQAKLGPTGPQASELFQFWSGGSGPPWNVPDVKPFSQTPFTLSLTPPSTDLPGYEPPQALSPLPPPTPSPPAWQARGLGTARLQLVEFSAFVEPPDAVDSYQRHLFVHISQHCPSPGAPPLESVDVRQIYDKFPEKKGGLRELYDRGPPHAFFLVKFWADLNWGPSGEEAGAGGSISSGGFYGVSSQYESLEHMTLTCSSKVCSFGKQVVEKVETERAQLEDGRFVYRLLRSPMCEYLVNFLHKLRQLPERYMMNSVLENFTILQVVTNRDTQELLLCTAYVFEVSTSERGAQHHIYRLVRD
T1 sequence (P28347 whole entry, the tested form may be a part): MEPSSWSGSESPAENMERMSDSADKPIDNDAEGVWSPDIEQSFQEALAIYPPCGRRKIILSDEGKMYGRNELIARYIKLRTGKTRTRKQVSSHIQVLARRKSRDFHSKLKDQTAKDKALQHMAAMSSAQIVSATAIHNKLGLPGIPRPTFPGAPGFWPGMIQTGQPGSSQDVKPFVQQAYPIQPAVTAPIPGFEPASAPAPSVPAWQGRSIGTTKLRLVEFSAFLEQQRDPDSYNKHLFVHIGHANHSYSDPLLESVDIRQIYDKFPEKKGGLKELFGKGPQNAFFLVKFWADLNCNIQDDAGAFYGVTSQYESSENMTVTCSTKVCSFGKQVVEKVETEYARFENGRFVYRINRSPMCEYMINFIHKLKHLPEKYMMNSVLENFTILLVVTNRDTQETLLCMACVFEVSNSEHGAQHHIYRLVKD
Chain of Transcriptional enhancer factor TEF-3 (Homo sapiens), Q15561 [C367S] (Q15561 whole entry C367S, the tested form may be a part): as the sequence (Q15561 whole entry, the tested form may be a part) above, with C367S counted along it
T6 sequence (P28347 whole entry, looked up): as the sequence (P28347 whole entry, the tested form may be a part) above
T6 sequence (P46937 whole entry, looked up): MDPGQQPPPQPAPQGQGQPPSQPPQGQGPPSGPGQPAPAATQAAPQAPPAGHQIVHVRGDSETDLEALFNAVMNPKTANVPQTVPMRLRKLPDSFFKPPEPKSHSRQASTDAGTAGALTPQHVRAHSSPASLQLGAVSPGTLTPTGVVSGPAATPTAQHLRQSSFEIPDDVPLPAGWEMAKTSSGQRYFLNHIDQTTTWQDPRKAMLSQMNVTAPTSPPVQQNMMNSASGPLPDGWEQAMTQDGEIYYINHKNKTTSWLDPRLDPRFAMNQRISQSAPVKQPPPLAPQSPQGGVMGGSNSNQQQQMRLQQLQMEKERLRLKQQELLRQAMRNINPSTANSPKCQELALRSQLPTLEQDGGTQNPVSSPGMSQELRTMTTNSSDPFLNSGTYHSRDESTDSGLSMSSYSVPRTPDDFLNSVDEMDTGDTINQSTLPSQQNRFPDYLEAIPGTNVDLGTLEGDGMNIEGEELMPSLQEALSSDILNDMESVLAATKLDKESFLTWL

## N#CN1Cc2cccc(Nc3ccccc3C(F)(F)F)c2C1
[1]
  pIC50: 5.89
[2]
  Imax: 98.7%
[3]
  pIC50: 5.27
[4]
  inhibition: inactive
[5]
  pIC50: 5.26
[6]
  Imax: 40%
[7]
  pIC50: 4.98
[8]
  IC50: Not Active
MDA-MB-468 [9]
  Imax: 36.7%
[10]
  pIC50: 5.68

## COc1ccc2c(c1Nc1cccc(C(F)(F)F)c1)CN(C#N)C2
[1]
  pIC50: 6.52
[11]
  inhibition: 50%
[2]
  Imax: 41.3%
[3]
  pIC50: 6.70
[4]
  inhibition: inactive
[5]
  pIC50: 6.52
[6]
  Imax: 42%
[12]
  inhibition: inactive
[7]
  pIC50: 6.52
[8]
  IC50: Not Active
MDA-MB-468 [9]
  Imax: 45.3%
[10]
  pIC50: 5.77

## N#CN1Cc2cccc(Nc3cccc(C(F)(F)F)c3)c2C1
[13]
  pIC50: 5.66
[1]
  pIC50: 6.05
[11]
  inhibition: 40%
[14]
  pIC50: 6.70
[2]
  Imax: 46.6%
[3]
  pIC50: 5.96
[4]
  inhibition: inactive
[15]
  inhibition: Active
[16]
  Imax: 42.7%
[5]
  pIC50: 6.22
[6]
  Imax: 34%
Huh-7 [17]
  pIC50: 7.00
[18]
  inhibition: Dose-Dependent Effect
[19]
  inhibition: Active
[20]
  pIC50: 7.52
[12]
  inhibition: 40%
SAOS-2 [21]
  pIC50: 7.00
[22]
  pIC50: 5.57
[23]
  pIC50: 5.46
[7]
  pIC50: 5.30
[24]
  inhibition: Active
[25]
  pIC50: 5.29
[26]
  Imax: 51.4%
[8]
  IC50: Not Active
SAOS-2 [27]
  Imax: 53.4%
[28]
  Imax: 60.7%
[29]
  inhibition: Tde
Huh-7 [30]
  Imax: 48.3%
MDA-MB-468 [9]
  Imax: 65.7%
[31]
  Imax: 31%
[32]
  inhibition: Active
[33]
  Imax: 51.2%
MDA-MB-468 [34]
  Imax: inactive
MDA-MB-468 [35]
  IC50: Not Active
[36]
  inhibition: Tde
[10]
  pIC50: 5.92
[37]
  Imax: 61.8%

## N#CN1CC2CCCC(Nc3ccc(C(F)(F)F)cc3)C2C1 (configuration not stated)
[1]
  pIC50: 5.82
[3]
  pIC50: 4.70
[5]; mda-mb-468
  IC50: Not Active
[6]
  Imax: 39%
[7]; hek293
  IC50: Not Active
[8]
  IC50: Not Active
MDA-MB-468 [9]
  Imax: inactive
[10]
  pIC50: 4.79
